# Assay: Riboflavin plasma pharmacokinetics and bioavailability after IV bolus, oral solution or GRDF
# Type: in vivo, Beagle dogs
# Details: for log-terminal slope of plasma riboflavin concentration: 100 mg riboflavin-5-phosphate, dogs n=6
# Procedure: Each dog received the drug by each of these modes, with at least one-week washout period between every phase of the study.
# Following each administration blood samples (4 ml) were collected into 5 ml heparinized test tubes wrapped in aluminum foil (to protect from light), for modes (1) and (2) at times 0, 0.25, 0.5, 1, 1.5, 2, 2.5, 3, 3.5, 4, 6, 8, 11, 24 hours, and for mode (3) at times 0, 0.5, 1, 1.5, 2, […], 3, 4, 6, 9, 12, 15, 18, 21, 24, 27, 30, 33, 36 and 48 hours. Plasma was separated following centrifugation (4000 rpm for 10 minutes), and stored at −20° C. pending analysis.
# Riboflavin plasma concentrations were determined by an HPLC method as follows: 100 μl trichloroacetic acid (20%) was mixed with 300 μl of a plasma sample. Following centrifugation of the mixture (13,000 rpm for 10 minutes) the supernatant was separated and incubated for 10 min at 85° C. After additional centrifugation (13,000 rpm for 10 minutes) 60 μl of the solution were injected to C18 HPLC column, with mobile phase that consisted of 15% acetonitrile in solution A (10 mmol potassium dihydrogen phosphate/L and 5 mmol hexanesulfonic acid/L, brought to a pH of 3 with orthophosphoric acid) at a flow rate of 1 ml/min. A spectrofluorometric detector set at 445 nm for excitation wavelength and 530 nm for emission wavelength detected the drug. Drug concentrations were determined with appropriate standard curves.
smiles,measurement,setting,value
Cc1cc2nc3c(=O)[nH]c(=O)nc-3n(C[C@H](O)[C@H](O)[C@H](O)CO)c2cc1C [riboflavin],bioavailability,"Beagle, dog, plasma, 100 mg, oral administration (oral solution), dogs, read-out: absolute bioavailability of riboflavin",5.8 ± 2.2%
same,rate of riboflavin elimination,"concluded from iv and PO administration, dogs",0.4 h⁻¹
same,log-terminal slope of plasma riboflavin concentration,intravenous bolus,0.44±0.13 hr^−1
same,log-terminal slope of plasma riboflavin concentration,oral solution,0.35±0.14 hr^−1

# Source: patent US6685962B2, “Gastroretentive controlled release pharmaceutical dosage forms” (priority 1999, dated 2004)
